{"source": "ChEMBL document CHEMBL5584347", "about": "“Development of Nitric Oxide Releasing Oxoisoaporphines with Antidepressant Activities by Simultaneously Regulating MAO-A and SERT” (J Med Chem, 2024)", "key": {"[1]": {"system": "PC-12", "assay": "Neuroprotective activity against corticosterone-induced cell injury in rat PC-12 cells assessed as increase in nitric oxide content at 0.2 uM by absorbance based assay", "type": "functional"}, "[2]": {"system": "Mus musculus", "assay": "Antidepressant activity in chronic unpredictable mild stress induced depressive C57 mouse model assessed as appearance of well arranged neuronal cells in hippocampus at 5 to 10 mg/kg administered continuously for 2 weeks post 5 weeks of chronic unpredictable mild stress by H and E staining based analysis", "type": "functional, organism-based", "settings": "dose 5-10 mg/kg"}, "[3]": {"system": "Mus musculus", "assay": "Antidepressant activity in chronic unpredictable mild stress induced depressive C57 mouse model assessed as increase in total distance traveled at 5 to 10 mg/kg administered continuously for 2 weeks post 5 weeks of chronic unpredictable mild stress by open field test", "type": "functional, organism-based", "settings": "dose 5-10 mg/kg"}, "[4]": {"assay": "Toxicity in C57 mouse assessed as effect on kidney structure at 5 to 10 mg/kg administered continuously for 2 weeks by H and E staining based analysis", "type": "organism-based", "settings": "in vivo, 336 h, dose 5-10 mg/kg"}, "[5]": {"system": "Mus musculus", "assay": "Antidepressant activity in chronic unpredictable mild stress induced depressive C57 mouse model assessed as reduction in resting time at 5 to 10 mg/kg administered continuously for 2 weeks post 5 weeks of chronic unpredictable mild stress by tail suspension test", "type": "functional, organism-based", "settings": "dose 5-10 mg/kg"}, "[6]": {"assay": "Toxicity in C57 mouse assessed as effect on lung size at 5 to 10 mg/kg administered continuously for 2 weeks by H and E staining based analysis", "type": "organism-based", "settings": "in vivo, 336 h, dose 5-10 mg/kg"}, "[7]": {"assay": "Toxicity in C57 mouse assessed as effect on heart structure at 5 to 10 mg/kg administered continuously for 2 weeks by H and E staining based analysis", "type": "organism-based", "settings": "in vivo, 336 h, dose 5-10 mg/kg"}, "[8]": {"assay": "Toxicity in C57 mouse assessed as effect on kidney pathology at 5 to 10 mg/kg administered continuously for 2 weeks by H and E staining based analysis", "type": "organism-based", "settings": "in vivo, 336 h, dose 5-10 mg/kg"}, "[9]": {"assay": "Toxicity in C57 mouse assessed as effect on lung morphology at 5 to 10 mg/kg administered continuously for 2 weeks by H and E staining based analysis", "type": "organism-based", "settings": "in vivo, 336 h, dose 5-10 mg/kg"}, "[10]": {"assay": "Toxicity in C57 mouse assessed as effect on spleen size at 5 to 10 mg/kg administered continuously for 2 weeks by H and E staining based analysis", "type": "organism-based", "settings": "in vivo, 336 h, dose 5-10 mg/kg"}, "[11]": {"system": "Mus musculus", "assay": "Antidepressant activity in chronic unpredictable mild stress induced depressive C57 mouse model assessed as reduction in fecal count at 5 to 10 mg/kg administered continuously for 2 weeks post 5 weeks of chronic unpredictable mild stress", "type": "functional, organism-based", "settings": "dose 5-10 mg/kg"}, "[12]": {"assay": "Toxicity in C57 mouse assessed as effect on heart size at 5 to 10 mg/kg administered continuously for 2 weeks by H and E staining based analysis", "type": "organism-based", "settings": "in vivo, 336 h, dose 5-10 mg/kg"}, "[13]": {"assay": "Toxicity in C57 mouse assessed as necrosis in kidney at 5 to 10 mg/kg administered continuously for 2 weeks by H and E staining based analysis", "type": "organism-based", "settings": "in vivo, 336 h, dose 5-10 mg/kg"}, "[14]": {"system": "Danio rerio", "assay": "Antidepressant activity in reserpine-induced depressive zebrafish model assessed as increase in time spend in upper part at 0.5 to 1 uM preadministered with reserpine for 40 mins followed by compound administration and measured after 7 days by novel tank test", "type": "functional, organism-based", "settings": "dose 0.5-1 µM, time 7.0 day"}, "[15]": {"assay": "Toxicity in C57 mouse assessed as effect on liver size at 5 to 10 mg/kg administered continuously for 2 weeks by H and E staining based analysis", "type": "organism-based", "settings": "in vivo, 336 h, dose 5-10 mg/kg"}, "[16]": {"assay": "Toxicity in C57 mouse assessed as effect on kidney morphology at 5 to 10 mg/kg administered continuously for 2 weeks by H and E staining based analysis", "type": "organism-based", "settings": "in vivo, 336 h, dose 5-10 mg/kg"}, "[17]": {"assay": "Cytotoxicity against rat PC-12 cells incubated for 24 hrs by MTT assay", "type": "toxicity, cell-based"}, "[18]": {"assay": "Toxicity in C57 mouse assessed as effect on spleen structure at 5 to 10 mg/kg administered continuously for 2 weeks by H and E staining based analysis", "type": "organism-based", "settings": "in vivo, 336 h, dose 5-10 mg/kg"}, "[19]": {"assay": "Toxicity in C57 mouse assessed as effect on lung pathology at 5 to 10 mg/kg administered continuously for 2 weeks by H and E staining based analysis", "type": "organism-based", "settings": "in vivo, 336 h, dose 5-10 mg/kg"}}, "note": "Calls of active or inactive are those of the source. The rule behind the calls is not given here.", "data": [{"smiles": "O=C1c2ccccc2-c2nccc3cc(OCCCO[N+](=O)[O-])cc1c23", "values": [{"measurement": "Activity", "setting": "[1]", "value": "Active"}, {"measurement": "Activity", "setting": "[2]", "value": "Active"}, {"measurement": "Activity", "setting": "[3]", "value": "Active"}, {"measurement": "Activity", "setting": "[4]", "value": "Non-Toxic"}, {"measurement": "Activity", "setting": "[5]", "value": "Active"}, {"measurement": "Activity", "setting": "[6]", "value": "Non-Toxic"}, {"measurement": "Activity", "setting": "[7]", "value": "Non-Toxic"}, {"measurement": "Activity", "setting": "[8]", "value": "Non-Toxic"}, {"measurement": "Activity", "setting": "[9]", "value": "Non-Toxic"}, {"measurement": "Activity", "setting": "[10]", "value": "Non-Toxic"}, {"measurement": "Activity", "setting": "[11]", "value": "Active"}, {"measurement": "Activity", "setting": "[12]", "value": "Non-Toxic"}, {"measurement": "Activity", "setting": "[13]", "value": "Non-Toxic"}, {"measurement": "Activity", "setting": "[14]", "value": "Active"}, {"measurement": "Activity", "setting": "[15]", "value": "Non-Toxic"}, {"measurement": "Activity", "setting": "[16]", "value": "Non-Toxic"}, {"measurement": "IC50 at 24 h", "setting": "[17]", "value": "> 10", "unit": "µM"}, {"measurement": "Activity", "setting": "[18]", "value": "Non-Toxic"}, {"measurement": "Activity", "setting": "[19]", "value": "Non-Toxic"}]}]}
